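Five compound concentrations were applied to cells in 96-well plates for 48 hours; endpoints were derived by simple linear interpolation of the resulting dose-response curve. TGI: total growth inhibition.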
What was measured:
Experiment in all cases: NCI-60 cell line screen, 48 h
DMS 273 small cell lung = system: DMS 273 small cell lung
SF-268 CNS = system: SF-268 CNS
NCI-H522 lung = system: NCI-H522 lung
UACC-62 melanoma = system: UACC-62 melanoma
EKVX NSCLC = system: EKVX NSCLC
ACHN renal = system: ACHN renal
OVCAR-8 ovarian = system: OVCAR-8 ovarian
DLD-1 colon = system: DLD-1 colon
M19-MEL melanoma = system: M19-MEL melanoma
HCC-2998 colon = system: HCC-2998 colon
M14 melanoma = system: M14 melanoma
TK-10 renal = system: TK-10 renal
RXF 393 renal = system: RXF 393 renal
K-562 leukemia = system: K-562 leukemia
LXFL 529 NSCLC = system: LXFL 529 NSCLC
KM20L2 colon = system: KM20L2 colon
RPMI-8226 leukemia = system: RPMI-8226 leukemia
OVCAR-5 ovarian = system: OVCAR-5 ovarian
RXF-631 renal = system: RXF-631 renal
IGROV1 ovarian = system: IGROV1 ovarian
KM12 colon = system: KM12 colon
DMS 114 small cell lung = system: DMS 114 small cell lung
MOLT-4 leukemia = system: MOLT-4 leukemia
UACC-257 melanoma = system: UACC-257 melanoma
A498 renal = system: A498 renal
SF-539 CNS = system: SF-539 CNS
COLO 205 colon = system: COLO 205 colon
786-0 renal = system: 786-0 renal
NCI-H23 lung = system: NCI-H23 lung
CCRF-CEM leukemia = system: CCRF-CEM leukemia
U251 CNS = system: U251 CNS
SK-MEL-2 melanoma = system: SK-MEL-2 melanoma
SK-MEL-28 melanoma = system: SK-MEL-28 melanoma
A549 NSCLC = system: A549 NSCLC
MALME-3M melanoma = system: MALME-3M melanoma
LOX IMVI melanoma = system: LOX IMVI melanoma
UO-31 renal = system: UO-31 renal
SNB-78 CNS = system: SNB-78 CNS
SF-295 CNS = system: SF-295 CNS
SK-MEL-5 melanoma = system: SK-MEL-5 melanoma
HOP-92 NSCLC = system: HOP-92 NSCLC
SW-620 colon = system: SW-620 colon
HOP-62 NSCLC = system: HOP-62 NSCLC
NCI-H226 lung = system: NCI-H226 lung
SK-OV-3 ovarian = system: SK-OV-3 ovarian
NCI-H460 lung = system: NCI-H460 lung
XF 498 CNS = system: XF 498 CNS
OVCAR-3 ovarian = system: OVCAR-3 ovarian
HCT-116 colon = system: HCT-116 colon
HT29 colon = system: HT29 colon
HL-60(TB) leukemia = system: HL-60(TB) leukemia
SNB-75 CNS = system: SNB-75 CNS
SR leukemia = system: SR leukemia
SNB-19 CNS = system: SNB-19 CNS
OVCAR-4 ovarian = system: OVCAR-4 ovarian
CAKI-1 renal = system: CAKI-1 renal
HCT-15 colon = system: HCT-15 colon
SN12C renal = system: SN12C renal
HOP-18 NSCLC = system: HOP-18 NSCLC

Measured: TGI

CCN(CC)CC(C(=O)Nc1c(C)cccc1C)/C(C)=N/NC(N)=S (centres undefined)
not listed: SR leukemia | SNB-19 CNS | OVCAR-4 ovarian | CAKI-1 renal | HCT-15 colon | SN12C renal | HOP-18 NSCLC
> 100 µM: all other assays above

CC(=O)/C=C\C(=O)NNS(=O)(=O)c1ccc(C)cc1
not listed: DMS 114 small cell lung | HOP-18 NSCLC
> 100 µM: all other assays above

O=C1OC2C(O)COC2(OCc2c[nH]c3ccccc23)C1O (centres undefined) (tested in a mixture with another compound)
not listed: ACHN renal | HCC-2998 colon | RXF-631 renal | SK-MEL-28 melanoma
> 100 µM: all other assays above

Reference: PubChem BioAssay (NCI)
